# Measured values as given in PubChem BioAssay (NCI).
#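 Method: 48-hour compound exposure of cells in 96-well plates, five concentrations, linear interpolation of endpoints. TGI: total growth inhibition.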
# How the values were obtained:
# Experiment in all cases: inhibition of tumour cell growth, NCI panel, 48 h
# [1] = system: 786-0 renal
# [2] = system: A549 NSCLC
# [3] = system: ACHN renal
# [4] = system: BT-549 breast
# [5] = system: CCRF-CEM leukemia
# [6] = system: COLO 205 colon
# [7] = system: DU-145 prostate
# [8] = system: EKVX NSCLC
# [9] = system: HCC-2998 colon
# [10] = system: HCT-116 colon
# [11] = system: HCT-15 colon
# [12] = system: HL-60(TB) leukemia
# [13] = system: HOP-62 NSCLC
# [14] = system: HS 578T breast
# [15] = system: HT29 colon
# [16] = system: IGROV1 ovarian
# [17] = system: K-562 leukemia
# [18] = system: KM12 colon
# [19] = system: LOX IMVI melanoma
# [20] = system: M14 melanoma
# [21] = system: MALME-3M melanoma
# [22] = system: MCF7 breast
# [23] = system: MDA-MB-231 breast
# [24] = system: MDA-MB-435
# [25] = system: MDA-N
# [26] = system: MOLT-4 leukemia
# [27] = system: NCI-H23 lung
# [28] = system: NCI-H460 lung
# [29] = system: NCI-H522 lung
# [30] = system: NCI/ADR-RES ovarian
# [31] = system: OVCAR-3 ovarian
# [32] = system: OVCAR-5 ovarian
# [33] = system: OVCAR-8 ovarian
# [34] = system: PC-3 prostate
# [35] = system: RPMI-8226 leukemia
# [36] = system: RXF 393 renal
# [37] = system: SF-268 CNS
# [38] = system: SF-295 CNS
# [39] = system: SF-539 CNS
# [40] = system: SK-MEL-2 melanoma
# [41] = system: SK-MEL-28 melanoma
# [42] = system: SK-MEL-5 melanoma
# [43] = system: SN12C renal
# [44] = system: SNB-19 CNS
# [45] = system: SNB-75 CNS
# [46] = system: SR leukemia
# [47] = system: SW-620 colon
# [48] = system: TK-10 renal
# [49] = system: U251 CNS
# [50] = system: UACC-257 melanoma
# [51] = system: UACC-62 melanoma
# [52] = system: UO-31 renal
# [53] = system: A498 renal
# [54] = system: CAKI-1 renal
# [55] = system: HOP-92 NSCLC
# [56] = system: NCI-H226 lung
# [57] = system: OVCAR-4 ovarian
# [58] = system: SK-OV-3 ovarian
smiles,measurement,setting,value
C=CCCC(CCC=C)(C(=O)O)C(=O)O,TGI,[1],> 100 µM
same,TGI,[2],> 100 µM
same,TGI,[3],> 100 µM
same,TGI,[4],> 100 µM
same,TGI,[5],> 100 µM
same,TGI,[6],> 100 µM
same,TGI,[7],> 100 µM
same,TGI,[8],> 100 µM
same,TGI,[9],> 100 µM
same,TGI,[10],> 100 µM
same,TGI,[11],> 100 µM
same,TGI,[12],> 100 µM
same,TGI,[13],> 100 µM
same,TGI,[14],> 100 µM
same,TGI,[15],> 100 µM
same,TGI,[16],> 100 µM
same,TGI,[17],> 100 µM
same,TGI,[18],> 100 µM
same,TGI,[19],> 100 µM
same,TGI,[20],> 100 µM
same,TGI,[21],> 100 µM
same,TGI,[22],> 100 µM
same,TGI,[23],> 100 µM
same,TGI,[24],> 100 µM
same,TGI,[25],> 100 µM
same,TGI,[26],> 100 µM
same,TGI,[27],> 100 µM
same,TGI,[28],> 100 µM
same,TGI,[29],> 100 µM
same,TGI,[30],> 100 µM
same,TGI,[31],> 100 µM
same,TGI,[32],> 100 µM
same,TGI,[33],> 100 µM
same,TGI,[34],> 100 µM
same,TGI,[35],> 100 µM
same,TGI,[36],> 100 µM
same,TGI,[37],> 100 µM
same,TGI,[38],> 100 µM
same,TGI,[39],> 100 µM
same,TGI,[40],> 100 µM
same,TGI,[41],> 100 µM
same,TGI,[42],> 100 µM
same,TGI,[43],> 100 µM
same,TGI,[44],> 100 µM
same,TGI,[45],> 100 µM
same,TGI,[46],> 100 µM
same,TGI,[47],> 100 µM
same,TGI,[48],> 100 µM
same,TGI,[49],> 100 µM
same,TGI,[50],> 100 µM
same,TGI,[51],> 100 µM
same,TGI,[52],> 100 µM
O=C1C=CC2(C=C1)CCC(=O)O2,TGI,[1],31 µM
same,TGI,[53],> 100 µM
same,TGI,[2],44.1 µM
same,TGI,[3],34.2 µM
same,TGI,[4],46.3 µM
same,TGI,[54],18.2 µM
same,TGI,[5],25.3 µM
same,TGI,[6],23.1 µM
same,TGI,[7],31.5 µM
same,TGI,[8],43.8 µM
same,TGI,[9],27.2 µM
same,TGI,[10],28 µM
same,TGI,[11],54.3 µM
same,TGI,[13],38.2 µM
same,TGI,[55],26.6 µM
same,TGI,[14],> 100 µM
same,TGI,[15],> 100 µM
same,TGI,[16],28.5 µM
same,TGI,[17],> 100 µM
same,TGI,[18],29.9 µM
same,TGI,[19],20.9 µM
same,TGI,[20],> 100 µM
same,TGI,[21],19.6 µM
same,TGI,[22],34.5 µM
same,TGI,[23],23.9 µM
same,TGI,[24],29.6 µM
same,TGI,[25],> 100 µM
same,TGI,[26],> 100 µM
same,TGI,[56],> 100 µM
same,TGI,[27],43.9 µM
same,TGI,[28],30.7 µM
same,TGI,[29],5.4 µM
same,TGI,[30],> 100 µM
same,TGI,[31],28.9 µM
same,TGI,[57],29.9 µM
same,TGI,[32],46 µM
same,TGI,[33],> 100 µM
same,TGI,[34],27.1 µM
same,TGI,[35],23.7 µM
same,TGI,[36],28.3 µM
same,TGI,[37],51.6 µM
same,TGI,[38],46.4 µM
same,TGI,[39],76.8 µM
same,TGI,[40],36.6 µM
same,TGI,[41],> 100 µM
same,TGI,[42],29.8 µM
same,TGI,[43],34.5 µM
same,TGI,[44],37.4 µM
same,TGI,[45],39.1 µM
same,TGI,[46],> 100 µM
same,TGI,[47],37.5 µM
same,TGI,[48],24.2 µM
same,TGI,[49],23.1 µM
same,TGI,[50],80.2 µM
same,TGI,[51],37.4 µM
same,TGI,[52],31.2 µM
COc1nc(SC)nc2c1C(O)n1c(nc3ccccc31)S2 (stereo not given),TGI,[1],24.6 µM
same,TGI,[53],39.4 µM
same,TGI,[2],> 100 µM
same,TGI,[3],39.9 µM
same,TGI,[4],> 100 µM
same,TGI,[54],> 100 µM
same,TGI,[5],22.3 µM
same,TGI,[7],> 100 µM
same,TGI,[8],> 100 µM
same,TGI,[9],> 100 µM
same,TGI,[10],30.4 µM
same,TGI,[11],> 100 µM
same,TGI,[12],60.5 µM
same,TGI,[13],37.4 µM
same,TGI,[55],61.9 µM
same,TGI,[14],50.7 µM
same,TGI,[15],> 100 µM
same,TGI,[16],> 100 µM
same,TGI,[17],> 100 µM
same,TGI,[18],> 100 µM
same,TGI,[19],> 100 µM
same,TGI,[20],> 100 µM
same,TGI,[21],> 100 µM
same,TGI,[22],91.2 µM
same,TGI,[23],> 100 µM
same,TGI,[24],> 100 µM
same,TGI,[25],> 100 µM
same,TGI,[26],> 100 µM
same,TGI,[27],95.4 µM
same,TGI,[28],> 100 µM
same,TGI,[29],69.1 µM
same,TGI,[30],94.9 µM
same,TGI,[31],85.7 µM
same,TGI,[57],44.4 µM
same,TGI,[32],> 100 µM
same,TGI,[33],80.9 µM
same,TGI,[34],> 100 µM
same,TGI,[35],> 100 µM
same,TGI,[37],> 100 µM
same,TGI,[38],59.6 µM
same,TGI,[40],> 100 µM
same,TGI,[41],> 100 µM
same,TGI,[58],67.2 µM
same,TGI,[43],> 100 µM
same,TGI,[44],> 100 µM
same,TGI,[46],> 100 µM
same,TGI,[47],47.7 µM
same,TGI,[48],97.7 µM
same,TGI,[49],96.8 µM
same,TGI,[50],> 100 µM
same,TGI,[51],44.7 µM
same,TGI,[52],16.8 µM
